Here are results for 26 compounds from patent US20130005696A1, “BUFADIENOLIDE DERIVATIVES, PREPARING PROCESS THEREOF, COMPOSITION COMPRISING THE SAME AND THE USE THEREOF” (priority 2011, published 2013).

For one assay, the system named is human non-small cell lung carcinoma A549 xenograft. Briefly: In vivo therapeutic effect against A549 xenograft in nude mice. The conditions noted are these: A549 xenograft in nude mice; bufalin at 1.6 mg/kg. On the procedure: This experiment is to evaluate the in vivo therapeutic effects of compounds bufalin, II1D-06.HCl, II1E-01.HCl and II1B-02.HCl against human-derived lung carcinoma A549 cell xenograft in nude mice.
Solvent control: 4% DMSO & 2% Tween-80 & 5% PEG-400 solution in normal saline
Compounds to be tested: bufalin, II1B-02.HCl, II1E-01.HCl, II1D-06.HCl
Formulating method: the compound was dissolved with DMSO into a stock solution, which was then diluted into an injection with a final DMSO concentration of 4%.
Positive control: Rapamycin Formulating method: it was formulated into an injection with a final DMSO concentration of 4%.
After the tumor size reaches about 200 mm^3, the mice bearing the tumor were grouped randomly into 8 groups according to the tumor size, including the groups of solvent control, positive control rapamycin 5 mg/kg, II1E-01.HCl 2 mg/kg, II1E-01.HCl 4 mg/kg, II1E-01.HCl 6 mg/kg, II1B-02.HCl 4 mg/kg, II1D-06.HCl 4 mg/kg, bufalin 1.6 mg/kg, wherein the dosage selection is based on that the maximum tolerable dosage is 1.6 mg/kg for bufalin and 6 mg/kg for II1E-01.HCl. Rapamycin was administered intravenously once a week (QW) and the other groups were administered intraperitoneally once every other day (QOD). The tumor was weighted after 21 days to calculate the inhibition rate. The equation for calculating inhibition rate (IR) is IR=(WC−WT)/WC×100%, wherein, WC represents the tumor weight of the control group, and WT represents the tumor weight of the treating group.
Consider `CCN(CC)CCNC(=O)O[C@H]1CC[C@@]2(C)[C@H](CC[C@@H]3[C@@H]2CC[C@]2(C)[C@@H](c4ccc(=O)oc4)CC[C@]32O)C1.Cl` [II1B-02•HCl], for which the “inhibition of growth of human lung carcinoma A549 xenograft, in words” value is listed as “significantly inhibit the growth”.

Staying with this assay, now noted: A549 xenograft, 4 mg/kg ip QOD, after 21 days.
Regarding `C[C@]12CC[C@H](OC(=O)N3CCCNCC3)C[C@H]1CC[C@@H]1[C@@H]2CC[C@]2(C)[C@@H](c3ccc(=O)oc3)CC[C@]12O.Cl` [II1D-06•HCl], the “Inhibition Rate (%)” value is 37.15% and the “Tumor Weight(g) Mean ± SE” value is 1.0580 ± 0.0866 g.

Turning to `CCN(CC)CCNC(=O)O[C@H]1CC[C@@]2(C)[C@H](CC[C@@H]3[C@@H]2CC[C@]2(C)[C@@H](c4ccc(=O)oc4)CC[C@]32O)C1.Cl` [II1B-02•HCl], the “Inhibition Rate (%)” value is recorded as 58.34% and the “Tumor Weight(g) Mean ± SE” value is given as 0.7013 ± 0.0707 g.

The test system of the next assay is HeLa human cervical carcinoma cell line. Briefly: In vitro antitumor activity assay (SRB), HeLa. Type of assay: cell-based. The settings on record: Table 1, read-out: IC50, inhibitory activity on cell proliferation of HeLa cell line. An excerpt: HeLa human cervical carcinoma cell line, A-549 human non-small cell lung carcinoma cell line, NCI-H2228 human lung carcinoma cell line, NCI-H460 human lung carcinoma cell line, MDA-MB-231 human breast carcinoma cell line, MCF-7 human breast carcinoma cell line, Bel-7402 human hepatic carcinoma cell line, Hep3B human hepatic carcinoma cell line, QGY-7703 human hepatic carcinoma cell line, MV-4-11 human leukemic cell line, DAUDI human leukemic cell line, Jurkat human leukemic cell line, A498 renal carcinoma cell line, LoVo human colon carcinoma cell line, HCT1116 human colon carcinoma cell line, A431 human skin carcinoma cell line, PANC-1 human pancreatic carcinoma cell line, U87-MG human brain carcinoma cell line, SH-SY5Y human brain carcinoma cell line, RPMI-8226 human bone carcinoma cell line, HT1080 human fibrosarcoma cell line, PC-3 human prostatic carcinoma cell line, AGS human gastric adenocarcinoma cell line, and BGC-823 human gastric adenocarcinoma cell line were purchased from the Cell Bank of the Chinese Academy of Sciences.
The positive control is bufalin (formulated according to the common method), its purity is 98% or more by HPLC-UV and its structure is identified by NMR. The compounds to be tested and the positive control were diluted with normal saline with a concentration gradient of 10^−4 M, 10^−5 M, 10^−6 M, 10^−7 M and 10^−8 M.
According to cell growth rate, tumor cells in the log phase of growth were seeded into 96-well culture plates at 100 μL per well, and allowed to attach for 24 hours, followed by addition of a test compound or positive control at 10 μL per well. For each concentration, the test was carried out in triplicate wells. Solvent control wells with addition of normal saline into cell culture and a blank well containing only cell culture medium but without cells for zeroing were also included. The tumor cells were incubated for 72 hours at 37° C. under 5% CO2, and then the culture medium (RPMI-1640) was removed. The cells were fixed with 10% cool TCA by incubating for 1 h at 4° C., washed with distilled water for 5 times, and dried naturally in the air. A solution of SRB (Sigma) (4 mg/mL) in 1% glacial acetic acid was added at 100 μL per well, and the cells were stained for 15 minutes at room temperature, and the supernatant was discarded. The plates were washed for 5 times with 1% acetic acid, and dried in air. Finally, Tris solution was added at 150 μL per well, and the absorbance (A) was measured at a wavelength of 515 nm using a microplate reader. The growth inhibition on tumor cell proliferation was calculated according to the following equation:
Growth Inhibition (%)=[(Absorbance of negative control−Absorbance of blank)−(Absorbance of sample−Absorbance of blank)]/(Absorbance of negative control−Absorbance of blank)×100%
Drug concentration: 10 μM, 1 μM, 0.1 μM, 10 nM, 1 nM, 0.1 nM.
IC50 was fitted by GraphPad Prism 4.
On to `C[C@]12CC[C@H](NC(=O)N3CCNCC3)C[C@H]1CC[C@@H]1[C@@H]2CC[C@]2(C)[C@@H](c3ccc(=O)oc3)CC[C@]12O` [III1D-02], for which the IC50 worked out at 5.68 nM.

Staying with this assay, now noted: read-out: IC50, inhibitory activity on cell proliferation of HeLa cell line.
Regarding `CNCCCN(C)C(=O)O[C@H]1CC[C@@]2(C)[C@H](CC[C@@H]3[C@@H]2CC[C@]2(C)[C@@H](c4ccc(=O)oc4)CC[C@]32O)C1` [II1B-07], the IC50 worked out at 1.15 nM.

For the compound `CCOC(=O)CCNC(=O)N1CCN(C(=O)O[C@H]2CC[C@@]3(C)[C@H](CC[C@@H]4[C@@H]3CC[C@]3(C)[C@@H](c5ccc(=O)oc5)CC[C@]43O)C2)CC1` [II1D-07], the IC50 came out at 2.6 nM.

As to `CCNCCN(CC)C(=O)O[C@H]1CC[C@@]2(C)[C@H](CC[C@@H]3[C@@H]2CC[C@]2(C)[C@@H](c4ccc(=O)oc4)CC[C@]32O)C1` [II1B-06], the IC50 came out at 1.11 nM.

As for `CNC1CCN(C(=O)O[C@H]2CC[C@@]3(C)[C@H](CC[C@@H]4[C@@H]3CC[C@]3(C)[C@@H](c5ccc(=O)oc5)CC[C@]43O)C2)CC1` [II1D-22], the IC50 amounted to 7.34 nM.

For the compound `C[C@]12CC[C@H](OC(=O)N3CCC(NCCO)CC3)C[C@H]1CC[C@@H]1[C@@H]2CC[C@]2(C)[C@@H](c3ccc(=O)oc3)CC[C@]12O` [II1D-24], the IC50 came out at 7.3 nM.

`C[C@]12CC[C@H](OC(=O)N3CCN(C(=O)c4ccccc4)CC3)C[C@H]1CC[C@@H]1[C@@H]2CC[C@]2(C)[C@@H](c3ccc(=O)oc3)CC[C@]12O` [II1D-16]: the IC50 was determined as 44.6 nM.

As for `CCN(CCN(C)C)C(=O)O[C@H]1CC[C@@]2(C)[C@H](CC[C@@H]3[C@@H]2CC[C@]2(C)[C@@H](c4ccc(=O)oc4)CC[C@]32O)C1` [II1B-04], the IC50 was 2.17 nM.

`C[C@]12CC[C@H](OC(=O)NCCN)C[C@H]1CC[C@@H]1[C@@H]2CC[C@]2(C)[C@@H](c3ccc(=O)oc3)CC[C@]12O` [II1B-09]: the IC50 came out at 5.72 nM.

For `C[C@]12CC[C@H](OC(=O)N3CCN(S(C)(=O)=O)CC3)C[C@H]1CC[C@@H]1[C@@H]2CC[C@]2(C)[C@@H](c3ccc(=O)oc3)CC[C@]12O` [II1D-10], the IC50 worked out at 16.3 nM.

In the case of `C[C@]12CC[C@H](OC(=O)NCC3CCNCC3)C[C@H]1CC[C@@H]1[C@@H]2CC[C@]2(C)[C@@H](c3ccc(=O)oc3)CC[C@]12O` [II1E-02], the IC50 is 4.31 nM.

For the compound `CCNC1CCN(C(=O)O[C@H]2CC[C@@]3(C)[C@H](CC[C@@H]4[C@@H]3CC[C@]3(C)[C@@H](c5ccc(=O)oc5)CC[C@]43O)C2)CC1` [II1D-23], the IC50 came to 1.12 nM.

`C[C@]12CC[C@H](NC(=O)N3CCCNCC3)C[C@H]1CC[C@@H]1[C@@H]2CC[C@]2(C)[C@@H](c3ccc(=O)oc3)CC[C@]12O` [III1D-04]: the IC50 was 3.98 nM.

As to `CN1CCN(C(=O)N[C@H]2CC[C@@]3(C)[C@H](CC[C@@H]4[C@@H]3CC[C@]3(C)[C@@H](c5ccc(=O)oc5)CC[C@]43O)C2)CC1` [III1D-03], the IC50 amounted to 41.6 nM.

`C[C@]12CC[C@H](OC(=O)N3CCNC3)C[C@H]1CC[C@@H]1[C@@H]2CC[C@]2(C)[C@@H](c3ccc(=O)oc3)CC[C@]12O` [II1D-19]: the IC50 worked out at 5.8 nM.

Consider `C[C@]12CC[C@H](NC(=O)NC3CCNCC3)C[C@H]1CC[C@@H]1[C@@H]2CC[C@]2(C)[C@@H](c3ccc(=O)oc3)CC[C@]12O` [III1E-01], for which the IC50 was determined as 7.2 nM.

As to `COC(=O)c1ccccc1S(=O)(=O)N1CCN(C(=O)O[C@H]2CC[C@@]3(C)[C@H](CC[C@@H]4[C@@H]3CC[C@]3(C)[C@@H](c5ccc(=O)oc5)CC[C@]43O)C2)CC1` [II1D-12], the IC50 came to 41.8 nM.

`C[C@]12CC[C@H](NC(=O)NCC3CCCCN3)C[C@H]1CC[C@@H]1[C@@H]2CC[C@]2(C)[C@@H](c3ccc(=O)oc3)CC[C@]12O` (some centres unmarked) [III1E-02]: the IC50 was 8.68 nM.

Turning to `C[C@]12CC[C@H](OC(=O)NCCCN)C[C@H]1CC[C@@H]1[C@@H]2CC[C@]2(C)[C@@H](c3ccc(=O)oc3)CC[C@]12O` [II1B-10], the IC50 stood at 1.82 nM.

On to `CC(=O)N1CCN(C(=O)O[C@H]2CC[C@@]3(C)[C@H](CC[C@@H]4[C@@H]3CC[C@]3(C)[C@@H](c5ccc(=O)oc5)CC[C@]43O)C2)CC1` [II1D-14], for which the IC50 is 23.1 nM.

On to `C[C@]12CC[C@H](OC(=O)N3CCC(O)CC3)C[C@H]1CC[C@@H]1[C@@H]2CC[C@]2(C)[C@@H](c3ccc(=O)oc3)CC[C@]12O` [II1D-04], for which the IC50 was determined as 38 nM.

Turning to `CN(C)C1CCN(C(=O)O[C@H]2CC[C@@]3(C)[C@H](CC[C@@H]4[C@@H]3CC[C@]3(C)[C@@H](c5ccc(=O)oc5)CC[C@]43O)C2)CC1` [II1D-25], the IC50 is 5.44 nM.

Consider `CN1CCN(C(=O)O[C@H]2CC[C@@]3(C)[C@H](CC[C@@H]4[C@@H]3CC[C@]3(C)[C@@H](c5ccc(=O)oc5)CC[C@]43O)C2)CC1` [II1D-03], for which the IC50 came to 3.49 nM.

As to `CN(C)CCNC(=O)O[C@H]1CC[C@@]2(C)[C@H](CC[C@@H]3[C@@H]2CC[C@]2(C)[C@@H](c4ccc(=O)oc4)CC[C@]32O)C1` [II1B-01], the IC50 was 1.79 nM.
